From paper PMC7862507, “Adrenomedullin for steroid-resistant ulcerative colitis: a randomized, double-blind, placebo-controlled phase-2a clinical trial” (Journal of Gastroenterology, 2020)

How the values were obtained:
[1] = Plasma concentration of adrenomedullin (pharmacokinetics); conditions: human, intravenous
Protocol: Serum concentrations of AM were assessed at predose, 4 and 8 h, and 2 h after administration (10 h after the start of drug administration) on 1, 8, and 14 days of the administration. […] Measurements and data processing were carried by the Bozo Research Centre (Tsukuba, Japan). The evaluated pharmacokinetic (PK) parameters included the maximum measured plasma concentration (Cmax); the time to maximum measured plasma concentration (Tmax); and the cumulative area under the plasma concentration–time curve (AUC) from time 0 to time 10 h.
The Cmax and Tmax values were obtained directly from the data, while the AUC was calculated using the Phoenix WinNonlin software 6·1 (Pharsight, CA, USA). All data are shown as mean ± standard deviation (SD).

[2] = test system: patients with steroid-resistant UC; experiment: Mayo score, phase-2a clinical trial; type: in vivo, Japanese patients; conditions: mean ± SD
Description: (§1) Patients had to meet all criteria, namely, a Mayo score of 6 or more, a rectal bleeding subscore of at least 1, and Mayo endoscopy subscore (MES) of at least 2, at entry. Main exclusion criteria were as follows: patients with fulminant UC, patients with precancerous lesion in the colon, medication history of biologics within the last 3 months, patients with malignancy or any history of malignancy, and patients with active infection. We excluded patients with a systolic blood pressure under 90 mmHg and a pulse rate under 45 bpm for safety reasons due to the vasodilatory effect of AM. All patients provided written informed consent for all study-related procedures and were requested to be hospitalized for 2 weeks.
(§2) Patients were enrolled after confirmation of steroid-resistance defined as at least daily treatment with 30 mg or more of prednisolone. Screening tests including measurements of vital signs, blood and urine examinations, as well as a 12-lead electrocardiography (ECG), were conducted within 2 weeks prior to administration. Demographic data and disease characteristics including endoscopic disease activity of patients were also collected before randomization. Endoscopic subscores were assessed by on-site investigators and were not subjected to central review. Clinical disease activity was assessed by expert doctors according to the Mayo score and Lichtiger index. Stool samples were collected before administration of the investigational drug and after 2 weeks of treatment initiation. Measurements of fecal calprotectin and […] (FITs) were performed by a commercially available laboratory testing service (BML, Tokyo, Japan) in compliance with GCP. Additionally, measurements of complement components including CH50, C1q, C3, and C4 and evaluation of the absolute number of hematopoietic stem cells in the peripheral blood were performed before and after 2, 4, and 8 weeks by other laboratory testing services (SRL medisearch, Tokyo, Japan and LSI medience, Tokyo, Japan, respectively). The absolute number of hematopoietic stem cells in the peripheral blood was measured as CD34-positive cells using CD45FITC/CD34PE, 7AAD kit (Becton Dickinson Immunocytometry System, USA) and flow cytometry.
(§3) After hospitalization, patients received a continuous infusion of the assigned drug for 8 h per day for a total of 14 days. After the final administration of the investigational drug, patients were subjected to safety examinations and then discharged. But, if necessary due to disease activity, continuous hospitalization was allowed. Patients were requested to make an office visit at 4 and 8 weeks. Evaluations of their Mayo scores including endoscopic examinations were done at 2 and 8 weeks, whereas evaluation of the Lichtiger index was done at 2, 4, and 8 weeks. The dose of concomitant steroid was maintained for 2 weeks after drug administration, and then, a reduction in the steroid dose was allowed depending on the disease condition. Changes to the doses of other drugs, such as aminosalicylic acid, were prohibited throughout the trial.
(§4) All data were collected at each institute from March 2017 to April 2019. The primary endpoint was the change in the Mayo scores at 2 weeks. Secondary endpoints included the change in the Mayo scores at 8 weeks and the rate of clinical remission at 2 and 8 weeks, defined as a Mayo score 0; the response rate of the Mayo scores at 2 and 8 weeks, defined as an improvement of a 3-point or more decrease or at least a 30% decrease from baseline; the changes in MES at 2 and 8 weeks; the changes in the Lichtiger index at 2, 4, and 8 weeks; the changes in fecal calprotectin and FIT at 2 weeks; and finally, the changes in the given dose of steroid.
(§5) The significant level for each test was 5%. […] All data are shown as mean ± standard deviation (SD).

[3] = test system: steroid-resistant UC; conditions: 9 ng/kg/min of AM; real dose might have been higher (1.4-fold dose of bulk powder used); cited from earlier work
Description: A high rate of the placebo effect has been reported in a previous trial for UC [1–3]. High response rates in the placebo group have occasionally obstructed the successful accomplishment of clinical trials for active UC [19]. In this trial, we were concerned about the major impact from the placebo effect because attending patients received hospitalization and bed rest for 2 weeks. Figure 2 illustrates the changes in clinical indexes and fecal markers of each patient at 2 weeks.

[4] = test system: patients with steroid-resistant UC; experiment: Lichtiger index, phase-2a clinical trial; type: in vivo, Japanese patients; conditions: mean ± SD
Description: as §1, §2, §3, §4, §5

[5] = test system: patients with steroid-resistant UC; experiment: Dose of concomitant steroid, phase-2a clinical trial; type: in vivo, Japanese patients; conditions: n = 3, mean ± SD, placebo 11.3 ± 6.4
Protocol: as §3, §4, §5

[6] = test system: patients with steroid-resistant UC; experiment: Adverse events, safety assessment; conditions: for Decrease of blood pressure (cardiovascular disorders) / Flushing (cardiovascular disorders) / Gastrointestinal disorders / Head disconfort (nervous system disorders) / Palpitation (cardiovascular disorders) / Rash / Headache (nervous system disorders) / Increase of transaminase / Muscle pain, back pain / Any adverse events: patients with event (%); for Decrease of blood pressure (cardiovascular disorders) / Flushing (cardiovascular disorders) / Gastrointestinal disorders / Head disconfort (nervous system disorders) / Palpitation (cardiovascular disorders) / Rash / Severe adverse events: placebo 0; for Headache (nervous system disorders) / Serious adverse events: placebo 1 (14%); for Increase of transaminase / Muscle pain, back pain: placebo 2 (29%); for Any adverse events: placebo 4 (57%); for Severe adverse events / Serious adverse events: patients with event
Protocol: Safety evaluations including the evaluation of adverse events (AEs) and serious adverse events (SAEs) were conducted throughout the study. Vital signs, blood and urine tests, and a 12-lead ECG were performed at specified times after administration, with monitoring of ECG being assessed from the beginning of every test drug administration until 2 h after the administration.
All data, except for the PK parameters, were collected using an electronic data collection system (Viedoc) and analyzed by Intellim (Tokyo, Japan), an independent CRO. […] The population included in the safety analysis were all patients who received at least 1 day of administration of the test drug. […] The significant level for each test was 5%. All analyses were performed using SAS version 9.3 (SAS Institute, Cary, NC, USA). […] All data are shown as mean ± standard deviation (SD).

AUC(0-t) ([1]; 5 ng/kg/min): 0.152 ± 0.034 ng·h/mL
AUC(0-t) ([1]; 10 ng/kg/min): 0.281 ± 0.039 ng·h/mL
AUC(0-t) ([1]; 15 ng/kg/min): 0.44 ± 0.191 ng·h/mL
SMILES: CC[C@H](C)[C@H](NC(=O)[C@H](CCC(N)=O)NC(=O)[C@H](Cc1c[nH]cn1)NC(=O)[C@H](C)NC(=O)[C@H](CC(C)C)NC(=O)[C@H](CCCCN)NC(=O)[C@H](CCC(N)=O)NC(=O)[C@@H](NC(=O)[C@@H](NC(=O)[C@@H]1CSSC[C@H](NC(=O)CNC(=O)[C@H](Cc2ccccc2)NC(=O)[C@H](CO)NC(=O)[C@H](CCCNC(=N)N)NC(=O)[C@H](CC(C)C)NC(=O)CNC(=O)[C@H](CCC(N)=O)NC(=O)[C@H](Cc2ccccc2)NC(=O)[C@H](CC(N)=O)NC(=O)[C@H](CC(N)=O)NC(=O)[C@H](CCSC)NC(=O)[C@H](CO)NC(=O)[C@H](CCC(N)=O)NC(=O)[C@H](CCCNC(=N)N)NC(=O)[C@@H](N)Cc2ccc(O)cc2)C(=O)N[C@@H](CCCNC(=N)N)C(=O)N[C@@H](Cc2ccccc2)C(=O)NCC(=O)N[C@@H]([C@@H](C)O)C(=O)N1)[C@@H](C)O)C(C)C)C(=O)N[C@@H](Cc1ccc(O)cc1)C(=O)N[C@@H](CCC(N)=O)C(=O)N[C@@H](Cc1ccccc1)C(=O)N[C@H](C(=O)N[C@@H](CC(=O)O)C(=O)N[C@@H](CCCCN)C(=O)N[C@@H](CC(=O)O)C(=O)N[C@@H](CCCCN)C(=O)N[C@@H](CC(=O)O)C(=O)N[C@@H](CC(N)=O)C(=O)N[C@H](C(=O)N[C@@H](C)C(=O)N1CCC[C@H]1C(=O)N[C@@H](CCCNC(=N)N)C(=O)N[C@@H](CO)C(=O)N[C@@H](CCCCN)C(=O)N[C@H](C(=O)N[C@@H](CO)C(=O)N1CCC[C@H]1C(=O)N[C@@H](CCC(N)=O)C(=O)NCC(=O)N[C@@H](Cc1ccc(O)cc1)C(N)=O)[C@@H](C)CC)C(C)C)[C@@H](C)O [Adrenomedullin]
Mayo score ([2]; AM 5 ng/kg/min infusion 8 h/day x 14 days, at 2 weeks, n = 4, baseline 9.5 ± 1.0, placebo 6.8 ± 3.6): 5.0 ± 3.2
Mayo score ([2]; AM 5 ng/kg/min infusion 8 h/day x 14 days, at 8 weeks, n = 3, placebo 4.5 ± 3.5 (n = 2)): 2.0 ± 1.7
Mayo score ([2]; AM 10 ng/kg/min infusion 8 h/day x 14 days, at 2 weeks, n = 5, baseline 8.8 ± 1.1, placebo 6.8 ± 3.6): 7.2 ± 2.7
Mayo score ([2]; AM 10 ng/kg/min infusion 8 h/day x 14 days, at 8 weeks, n = 3, placebo 4.5 ± 3.5 (n = 2)): 5.7 ± 2.5
Mayo score ([2]; AM 15 ng/kg/min infusion 8 h/day x 14 days, at 2 weeks, n = 6, baseline 9.8 ± 1.6, placebo 6.8 ± 3.6): 7.0 ± 4.1
Mayo score ([2]; AM 15 ng/kg/min infusion 8 h/day x 14 days, at 8 weeks, n = 3, placebo 4.5 ± 3.5 (n = 2)): 0.0 ± 0.0
improvement in steroid-resistant UC [3]: significant improvement
Lichitiger index ([4]; AM 5 ng/kg/min infusion 8 h/day x 14 days, at 2 weeks, n = 4, baseline 10.8 ± 2.9, placebo 7.0 ± 5.8): 5.5 ± 5.6
Lichitiger index ([4]; AM 5 ng/kg/min infusion 8 h/day x 14 days, at 4 weeks, n = 3, placebo 3.5 ± 3.7): 2.0 ± 1.7
Lichitiger index ([4]; AM 5 ng/kg/min infusion 8 h/day x 14 days, at 8 weeks, n = 3, placebo 2.3 ± 4.0): 1.3 ± 1.2
Lichitiger index ([4]; AM 10 ng/kg/min infusion 8 h/day x 14 days, at 2 weeks, n = 5, baseline 12.2 ± 0.4, placebo 7.0 ± 5.8): 7.8 ± 3.8
Lichitiger index ([4]; AM 10 ng/kg/min infusion 8 h/day x 14 days, at 4 weeks, n = 3, placebo 3.5 ± 3.7): 4.7 ± 4.7
Lichitiger index ([4]; AM 10 ng/kg/min infusion 8 h/day x 14 days, at 8 weeks, n = 3, placebo 2.3 ± 4.0): 5.7 ± 4.5
Lichitiger index ([4]; AM 15 ng/kg/min infusion 8 h/day x 14 days, at 2 weeks, n = 6, baseline 12.0 ± 1.7, placebo 7.0 ± 5.8): 6.5 ± 4.4
Lichitiger index ([4]; AM 15 ng/kg/min infusion 8 h/day x 14 days, at 4 weeks, n = 3, placebo 3.5 ± 3.7): 1.3 ± 1.5
Lichitiger index ([4]; AM 15 ng/kg/min infusion 8 h/day x 14 days, at 8 weeks, n = 3, placebo 2.3 ± 4.0): 0.3 ± 0.6
dose of steroid at 8 weeks ([5]; AM 5 ng/kg/min group): 5.0 ± 8.7 mg
dose of steroid at 8 weeks ([5]; AM 10 ng/kg/min group): 10.0 ± 10.0 mg
dose of steroid at 8 weeks ([5]; AM 15 ng/kg/min group): 16.7 ± 12.6 mg
Decrease of blood pressure (cardiovascular disorders) ([6]; AM 5 ng/kg/min, n = 5): 0
Flushing (cardiovascular disorders) ([6]; AM 5 ng/kg/min, n = 5): 0
Gastrointestinal disorders ([6]; AM 5 ng/kg/min, n = 5): 2 (40%)
Head disconfort (nervous system disorders) ([6]; AM 5 ng/kg/min, n = 5): 0
Palpitation (cardiovascular disorders) ([6]; AM 5 ng/kg/min, n = 5): 0
Rash ([6]; AM 5 ng/kg/min, n = 5): 0
Headache (nervous system disorders) ([6]; AM 5 ng/kg/min, n = 5): 3 (60%)
Increase of transaminase ([6]; AM 5 ng/kg/min, n = 5): 0
Muscle pain, back pain ([6]; AM 5 ng/kg/min, n = 5): 0
Any adverse events ([6]; AM 5 ng/kg/min, n = 5, n = 7): 4 (80%)
Decrease of blood pressure (cardiovascular disorders) ([6]; AM 10 ng/kg/min, n = 7): 1 (14%)
Flushing (cardiovascular disorders) ([6]; AM 10 ng/kg/min, n = 7): 0
Gastrointestinal disorders ([6]; AM 10 ng/kg/min, n = 7): 0
Head disconfort (nervous system disorders) ([6]; AM 10 ng/kg/min, n = 7): 1 (14%)
Palpitation (cardiovascular disorders) ([6]; AM 10 ng/kg/min, n = 7): 0
Rash ([6]; AM 10 ng/kg/min, n = 7): 0
Headache (nervous system disorders) ([6]; AM 10 ng/kg/min, n = 7): 4 (57%)
Increase of transaminase ([6]; AM 10 ng/kg/min, n = 7): 0
Muscle pain, back pain ([6]; AM 10 ng/kg/min, n = 7): 0
Any adverse events ([6]; AM 10 ng/kg/min, n = 7): 6 (86%)
Decrease of blood pressure (cardiovascular disorders) ([6]; AM 15 ng/kg/min, n = 7): 1 (14%)
Flushing (cardiovascular disorders) ([6]; AM 15 ng/kg/min, n = 7): 2 (29%)
Gastrointestinal disorders ([6]; AM 15 ng/kg/min, n = 7): 0
Head disconfort (nervous system disorders) ([6]; AM 15 ng/kg/min, n = 7): 2 (29%)
Palpitation (cardiovascular disorders) ([6]; AM 15 ng/kg/min, n = 7): 1 (14%)
Rash ([6]; AM 15 ng/kg/min, n = 7): 1 (14%)
Headache (nervous system disorders) ([6]; AM 15 ng/kg/min, n = 7): 4 (57%)
Increase of transaminase ([6]; AM 15 ng/kg/min, n = 7): 1 (14%)
Muscle pain, back pain ([6]; AM 15 ng/kg/min, n = 7): 0
Any adverse events ([6]; AM 15 ng/kg/min, n = 7): 6 (86%)
Severe adverse events ([6]; AM 5 ng/kg/min, n = 5): 0
Serious adverse events ([6]; AM 5 ng/kg/min, n = 5): 0
Severe adverse events ([6]; AM 10 ng/kg/min, n = 7): 0
Serious adverse events ([6]; AM 10 ng/kg/min, n = 7): 0
Severe adverse events ([6]; AM 15 ng/kg/min, n = 7): 0
Serious adverse events ([6]; AM 15 ng/kg/min, n = 7): 0
